From patent publication US20260355330A1, “CELL PENETRATING PEPTIDES AND USES THEREOF” (VECTIOPEP OÜ, priority 2022, published 2026)

Experiments:
CHO-K1 cells = assay: Delivery of reporter mRNA with CPPs in cell culture (luciferase luminescence 24 h post-transfection); format: cell-based
Method in brief: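 CHO-K1 cells (10,000/well) transfected in 10% FBS DMEM with 0.1 μg firefly luciferase mRNA complexed with CPP at 3:1 charge ratio (peptide excess). Luminescence read in lysates 24 h later, normalised to BCA total protein (RLU/mg).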

[1] = system: liver, spleen, lung, kidney, heart and thymus of Balb/c mice; assay: Biodistribution of reporter levels post-transfection of mRNA or pDNA with CPPs in vivo (tissue homogenate)
Experimental: FIG. 3: Biodistribution of reporter levels post-transfection of mRNA or pDNA with NFs or PFs CPPs in vivo. Reporter gene product levels were evaluated from the whole tissue homogenates collected post mortem. Results are shown as the fold change to mRNA or pDNA treated mice.
The transfection complexes (CPP/mRNA) were formed using 10 μg of mRNA mixed with each peptide at indicated charge ratios (CRs) in MQ water in a final volume of 100 μl. CRs were calculated theoretically and account for both the positive charges of the peptide and negative charges of the nucleic acid. The transfection complexes (CPP/mRNA and CPP/pDNA) were formed using 50 μg of mRNA mixed with each peptide at indicated charge ratios (CRs) in MQ water in a final volume of 168 μl. The complexes were incubated for 30 minutes at room temperature and then mixed with equal volume of 10% glucose (resulting in a final solution of 5% glucose in a total volume of 200 μl for 10 μg dose groups and 336 μl for 50 μg dose groups) and immediately injected intravenously via the tail vein.
The reporter gene (luciferase) expression levels were evaluated from the tissue homogenate post mortem 16-24 h after single injection.
In order to determine to which organs in vivo mRNAs may be delivered to with NickFect or PepFect CPPs, mRNA complexes with NF55, NF71 and PF14 were formed and injected through the tail vein of Balb/c mice (FIG. 3A). The organs were harvested 24 hours after the single injection and reporter signal was measured from whole tissue homogenates. The biodistribution of reporter levels was measured in liver, spleen, lung, kidney, heart and thymus.
In order to compare the biodistribution profiles between harvested organs when using either mRNA or pDNA as cargo, NF424 was used to transfect these 2 types of nucleic acids in vivo (FIG. 3B and Table 4).

[2] = mRNA delivery, i.v. tail vein, 24 h after single injection, FIG. 3: fold change to mRNA or pDNA treated mice

`CCCCCCCCCCCCCCCCCC(=O)N[C@@H](C)C(=O)NCC(=O)N[C@@H](Cc1ccc(O)cc1)C(=O)N[C@@H](CC(C)C)C(=O)N[C@@H](CC(C)C)C(=O)NCC(=O)NCCC[C@H](N)C(=O)N[C@H](C(=O)N[C@@H](CC(N)=O)C(=O)N[C@@H](CC(C)C)C(=O)N[C@@H](CCCCN)C(=O)N[C@@H](C)C(=O)N[C@@H](CC(C)C)C(=O)N[C@@H](C)C(=O)N[C@@H](C)C(=O)N[C@@H](CC(C)C)C(=O)N[C@@H](C)C(=O)N[C@@H](CCCCN)C(=O)N[C@@H](C)C(=O)N[C@H](C(=O)N[C@@H](CC(C)C)C(N)=O)[C@@H](C)CC)[C@@H](C)CC` [NF55] was tested, and the “Average RLU/mg (reporter levels post-transfection of mRNA)” value (CHO-K1 cells; firefly luciferase mRNA, 0.1 μg per well, charge ratio 3:1, serum containing media, 24 h, RLU normalised to total protein in lysate) was 1 270 000 000 RLU/mg, the “Efficiency of mRNA transfection/delivery” value (CHO-K1 cells; in words, FIG. 1 / Table 2, cell culture) was “the most efficient” and the “Organ distribution of mRNA delivery” value ([1]; in words, mRNA cargo) was “much higher than in any other organ”. For the same compound, the “Reporter level, Liver” value [1, 2] was 284, the “Reporter level, Lung” value [1, 2] was 23 465 and the “Reporter level, Spleen” value [1, 2] was 79 879. For the same compound, the “Delivery of mRNA to the spleen relative to delivery to the lungs” value ([1]; mRNA, 24 h after single i.v. injection) was 3.5 times.
